The results in this text go back to US20240344026A1, “Methods to Activate Gamma Delta T cells for Antibody Dependent Cellular Cytotoxicity” (Intellistem, Inc., priority 2023, published 2024).

What all share (type): cell-based
Assay [1] has as its system Gamma Delta T cells. Nature of the assay: Differentiation of Gamma Delta T cells by CD45RA and CD27 expression. From the text: The present inventors divided the T cells into naive, central memory, effector memory and terminally differentiated Gamma Delta T cells based on expression of CD45RA and CD27.
Assay [2] relates to cytoplasmic perforin of Gamma Delta T cells. Description: Cytoplasmic perforin staining, flow cytometry. As for the experimental part: To evaluate the activity of stimulated Gamma Delta T cells, cytoplasmic perforin and IFN γ were stained every three to four days and Δ MFI was measured by flow cytometry.
A general note: In flow cytometry, cells or beads pass a laser one at a time.

Assay [3] concerns tumor cell line Daudi. Description: Cytotoxicity assay. An excerpt:
To directly determine the anti-tumor activity of Gamma Delta T cells against the tumor cell line Daudi, the present inventors performed a cytotoxicity assay on day 10 of cultivation comparing the prior art (R10F) and preferred embodiment of the present invention (Ko-Op). For this, Alpha Beta T cells and NKp46+ cells were paramagnetically depleted from the cell suspension in order to isolate the Gamma Delta T cells on day 10. The cell composition before and after depletion is shown FIG. 2A.
The present inventors next performed the cytotoxicity assay with the different cultivated MNC. To be able to compare the methods more clearly, the present inventors calculated the lytic units per 10^6 effector cells.

Assay [4] deals with Gamma Delta T cells. Description: Proliferation rate of Gamma Delta T cells on ex vivo stimulation of MNC. The conditions noted are these: changed stimulant vs standard protocol; zoledronate pulse 100 μM 4 h (day 7); IL-15 10 ng/ml, IL-2 1000 U/ml. As for the experimental part:
Cell cultures were performed with peripheral blood obtained from healthy adult donors. Peripheral blood mononuclear cells (MNC) were isolated by density gradient centrifugation with Biocoll (Biochrom, Darmstand, Germany/Bio&SELL, Feucht, Germany). MNC were incubated up to 17 days at 37° C. and 5% CO2.
For cultivation, MNC at a concentration of 5.0E+05/ml were cultured in 50 ml cell culture flasks (Sarstedt, Nuembrecht, Germany) using medium consisting of OpTmizer™ CTSTM T-Cell Expansion Basal Medium, OpTmizer™ CTSTM T-Cell Expansion Supplement (Gibco/Thermo Fisher, Waltham, USA) and 1% 200 mM L-Glutamin. 10 μM Zoledronate were added on day 0 and 1000 U/ml IL-2 were added on day 2. On days 4, 7, 9, 11 and 14 half of the medium was removed and replaced by fresh medium containing 2× 1000 U/ml IL-2 for a final concentration of 1000 U/ml. Cells were not split at any time. From day 4 on cell culture flasks were shaken at 250 rpm. For pulsing zoledronate, 100 μM Zol were added on day 0. […]
Cell counts and cell viability were established using a hemocytometer and the trypan blue exclusion method. Cell count and proliferation rate of Gamma Delta T cells was calculated on the basis of the cell number of the MNC and the percentage of Gamma Delta T cells on the MNC determined by flow cytometry. […]

[5] abbreviates: changed stimulant vs standard protocol.
Where [6] appears, read: changed stimulant vs standard protocol, without combination of modifications.
Setting [7] is: IL-15 instead of IL-2, combined with pulsing zoledronate.

On to `O=P(O)(O)C(O)(Cn1ccnc1)P(=O)(O)O` [zoledronate, reference compound], for which the “percentage of central memory Gamma Delta T cells (TCM)” value in assay [1] (setting [5]) is recorded as “more TCM”. For the same compound, the cytoplasmic perforin result in assay [2] (setting [6]) was “did not lead to any significant change”. In addition, in assay [3] (without therapeutic antibodies, vs standard protocol), the “lytic units per 10^6 effector cells” value is on record as “significant increase”. The “proliferation rate of Gamma Delta T cells” value in assay [4] is “significant lower proliferation rate”.

As for “IL-15: interleukin used at 10 ng/ml in place of IL-2”, the “percentage of effector Gamma Delta T cells (TEM)” value in assay [1] (IL-15 instead of IL-2) and in assay [1] (setting [7]) was “reduced percentage” throughout. Also, the “percentage of central memory Gamma Delta T cells (TCM)” value in assay [1] (setting [7]) and in assay [1] (setting [5]) was “elevated percentage” in each case. Further, the cytoplasmic perforin result in assay [2] (IL-15 instead of IL-2, with zoledronate pulse) is given as “significant reduction”; in assay [2] (setting [6]) it was “significant reduction”. Moreover, the “lytic units per 10^6 effector cells” value in assay [3] (with zoledronate pulse, without antibody, vs zoledronate pulse without modification of the interleukins) was “an increase”. For the same compound, the “proliferation rate of Gamma Delta T cells” value in assay [4] is recorded as “significantly lower”.
